From US5023271A, “Pharmaceutical microemulsions” (priority 1985, dated 1991)

Assays:
[1] = system: lipoprotein components of human serum; experiment: In vitro transfer of tocopherol from microemulsion to human serum lipoproteins (sodium chloride gradient); conditions: 100 μl microemulsion of Example 1 + 900 μl saline, 1 hr, 37°
Procedure: The diffusion of tocopherol in the mixtures was compared with the distribution of lipoproteins in the same mixtures and with the distribution of tocopherol from the untreated emulsion.
For a control, 100 μl of the microemulsion were incubated with 900 μl of saline solution under the same conditions. Each mixture was underlayered in a sodium chloride gradient and separated by ultracentrifugation according to Foreman, et al, J Lipid Research (1977) 18:759-767. The fractions of various densities were collected and each fraction was assayed for the content of tocopherol, tocopherol acetate, and cholesterol. The microemulsion alone mixed with saline gives a single peak for tocopherol at a density of approximately 1.018 g/ml. […] The treatment of microemulsion with serum effects the transfer of the tocopherol to serum in conjunction with the lipoprotein content thereof.

[2] = system: lipoprotein fractions; experiment: Distribution of injected α-tocopherol and tocopherol acetate among serum lipoprotein fractions of rabbits
Procedure: The serum samples were also layered under a sodium chloride gradient and centrifuged. The distribution of the injected α-tocopherol and tocopherol acetate among the lipoprotein fractions was assessed.

[3] = cited from earlier work
[4] = in vivo; conditions: rabbit, iv, 15 mL/animal
Excerpt: (§1) The rabbits were then sacrificed and the tissues analyzed for their content of tocopherol and tocopherol acetate.

[5] = Serum and liver extract levels in rats after IV injection; conditions: 1 ml preparation of Example 1 IV
Procedure: The animals were sacrificed at 15 minute intervals for the first hour, after two hours, and then after 1, 3, 5, and 10 days. The levels of α-tocopherol and tocopherol acetate were assayed in the sera and liver extracts.

[6] = Long term daily injection to rabbits, serum samples at 1 week intervals; conditions: 1 ml preparation of Example 1 daily for 30 days
Procedure: New Zealand male rabbits were injected daily with 1 ml doses of the preparation of Example 1 for 30 days.

[7] = Short term serum and tissue levels after intravenous injection to rabbits
Excerpt: as §1

For `Cc1c(C)c2c(c(C)c1O)CCC(C)(CCCC(C)CCCC(C)CCCC(C)C)O2` (racemic) [α-tocopherol], the “density of the tocopherol peak, microemulsion mixed with saline (control)” value [1] is listed as “approximately 1.018 g/ml”, the “distribution among lipoprotein fractions after injection” value ([2]; rabbit, in vivo, iv) is listed as “transferred, apparently to the LDL fraction, in exchange for cholesterol” and the “adverse outcome of oral administration” value ([3]; in vivo, po) is listed as “gastrointestinal problems”. The “adverse outcome of intravenous administration” value ([3]; intravenous, premature infants) was “implicated in several neonatal deaths”.
With `CC(=O)Oc1c(C)c(C)c2c(c1C)CCC(C)(CCC[C@H](C)CCC[C@H](C)CCCC(C)C)O2` (stereo partly drawn) [tocopherol acetate, α-tocopherol (dl) acetate] the “distribution among lipoprotein fractions after injection” value ([2]; preparation of Example 1 i.v., serum samples on sodium chloride gradient) was “remained mainly at the density of the microemulsion alone”, the concentration at 5 min [4] was 280 µg/mL and the “hydrolysis of tocopherol acetate in liver” value [5] was “completely hydrolyzed after approximately two hours”. The serum tocopherol acetate [6] was “No tocopherol acetate was detectable”, the “α-tocopherol acetate in circulation by the end of 4 hr” value ([7]; 15 ml preparation of Example 1 i.v., 4 hr) was “finally disappearing from the circulation by the end of the 4 hr period” and the “α-tocopherol acetate in liver, spleen, and other tissues” value ([7]; after 4 hr) was “no α-tocopherol acetate could be detected”.
